Measured values published in patent publication US5919797A, “Halogenated naphthyl methoxy piperidines for mapping serotonin transporter sites” (Emory University, priority 1997, dated 1999).
Entries after “also recorded” stand apart in the source; their conditions may differ. Where a name gives a salt, the structure may show the parent alone. Read-outs that look alike come from different tables or passages of the source.

Assays:
[1] = test system: serotonin transporter sites; details: carbon-11 labelled, vs previously tested PET serotonin transporter ligands; cited from earlier work
[2] = target: T1, serotonin transporter (Rattus norvegicus, UniProt P31652); test: inhibition of [3H]-citalopram binding to rat cortical homogenates (competitive radioligand binding assay)
T1 construct: from tissue; host or cells: rat cerebral cortex homogenate
T1 sequence (P31652 whole entry): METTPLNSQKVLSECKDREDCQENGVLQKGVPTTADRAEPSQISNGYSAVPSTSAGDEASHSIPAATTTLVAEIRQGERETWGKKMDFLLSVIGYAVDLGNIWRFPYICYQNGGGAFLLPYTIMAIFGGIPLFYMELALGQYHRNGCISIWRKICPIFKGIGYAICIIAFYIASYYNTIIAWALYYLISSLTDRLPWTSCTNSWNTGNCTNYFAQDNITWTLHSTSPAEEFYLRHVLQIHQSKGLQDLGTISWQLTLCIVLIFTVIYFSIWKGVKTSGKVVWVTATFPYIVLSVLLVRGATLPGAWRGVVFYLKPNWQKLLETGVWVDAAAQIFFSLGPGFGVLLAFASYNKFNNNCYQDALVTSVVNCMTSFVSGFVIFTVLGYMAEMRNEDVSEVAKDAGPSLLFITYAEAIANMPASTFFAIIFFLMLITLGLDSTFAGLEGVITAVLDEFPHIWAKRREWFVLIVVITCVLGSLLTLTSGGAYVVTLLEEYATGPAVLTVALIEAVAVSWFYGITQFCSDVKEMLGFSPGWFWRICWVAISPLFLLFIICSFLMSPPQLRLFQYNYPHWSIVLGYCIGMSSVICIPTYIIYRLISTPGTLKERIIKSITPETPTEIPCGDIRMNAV
Source text: Compounds of the invention have activity as specific ligands of the serotonin transporter. In particular, the 1-halonaphthalenyl pharmacophore has high affinity for the serotonin transporter. […] Halogen substituents can be in naturally-occurring or radioisotopic form.
Many compounds have been described in the literature as selective inhibitors of the presynaptic reuptake of serotonin (5-hydroxytryptamine,5-HT). […] A good correlation exists between the capacities of a variety of drugs to inhibit [^3 -H]-citalopram binding and [^3 -H]-5HT uptake in rat cortex, thus allowing this binding test to be used in screening for new 5-HT uptake inhibitors. […]

[3] = test system: serotonergic neurons; test: biodistribution studies in rats of radiolabelled compound; type: in vivo, rat; details: 123-I labelled
[4] = test system: 5HT3 receptor; test: inhibition of [3H] GR65630 binding to serotonergic synaptosomal preparation
Source text: 5HT3 receptor activity. It blocked the binding of [3H] GR65630 to […]

[5] = test system: presynaptic reuptake of serotonin; details: humans; depression, obsessive-compulsive and eating disorders, alcoholism, drug addiction; cited from earlier work
[6] = test system: serotonin transporter; details: radiolabeled with carbon-11 and fluorine-18; cited from earlier work
[7] = Table 1, rat cortical tissue, read-out: [3H]-Citalopram Binding IC50
[8] = Table 1, rat cortical tissue, read-out: [3H]-Citalopram Binding Ki
[9] = concentration needed to achieve 50% inhibition of citalopram binding (IC50), rat cortical homogenates
[10] = serotonergic synaptosomal preparation

In the case of `[11CH3]Sc1ccc([C@H]2CN3CCC[C@H]3c3ccccc32)cc1` [Carbon-11 McN-5652Z], the “accumulation in brain regions rich in serotonergic neurons, in words” value [1] is given as “greatest accumulation in brain regions rich in serotonergic neurons”.
For `Brc1c(COC2CCNCC2)ccc2ccccc12.Cl` [Compound 1, 4-[(1-Bromo-2-naphthalenyl)methoxy]piperidine hydrochloride], the IC50 [2, 7] was 0.02 nM, the Ki [2, 8] was 0.014 nM and the IC50 [2, 9] was 0.015 nM. For the same compound, the “inhibition of [3H]-citalopram binding / affinity for the serotonin transporter, in words” value ([2]; rat cortical tissue) was “most potent inhibitor” and the “potency relative to fluoxetine, inhibition of [3H]-citalopram binding” value ([2]; rat cortical tissue, vs fluoxetine (Prozac)) was 100 fold.
For `Ic1c(COC2CCNCC2)ccc2ccccc12` [Compound 2, 4[(1-Iodo-2-naphthalenyl)methoxyl]piperidine hydrochloride], the Ki [2] was 4.13 nM, the IC50 ([2]; [3H]-Citalopram Binding IC50, Table 1, rat cortical tissue) was 5.9 nM and the IC50 [2, 9] was 4.1 nM.
`Cl.Fc1c(COC2CCNCC2)ccc2ccccc12` [Compound 3, 4-[(1-Fluoro-2-naphthalenyl)methoxy]-piperidine hydrochloride] showed an IC50 [2, 7] of 5.74 nM, a Ki [2, 8] of 3.37 nM and an IC50 [2, 9] of 3.37 nM. For the same compound, the “inhibition of [3H]-citalopram binding / affinity for the serotonin transporter, in words” value ([2]; rat cortical tissue) was “inhibitory activity comparable to that of fluoxetine and fluvoxamine”.
Work on `Cl.Clc1c(COC2CCNCC2)ccc2ccccc12` [Compound 4, 4-[(1-Chloro-2-naphthalenyl)methoxy]-piperidine hydrochloride] yielded an IC50 [2, 7] of 2.12 nM, a Ki [2, 8] of 1.24 nM and an IC50 [2, 9] of 1.24 nM. The “inhibition of [3H]-citalopram binding / affinity for the serotonin transporter, in words” value ([2]; rat cortical tissue) was “inhibitory activity comparable to that of fluoxetine and fluvoxamine”.
With `Brc1c(COC2CCNCC2)c(I)cc2ccccc12` [Compound 5, 4-[(1-Bromo-3-iodo-2-naphthalenyl)methoxy]piperidine hydrochloride] the IC50 [2, 7] was 54.6 nM and the Ki [2, 8] was 36.9 nM.
With `Brc1c(COC2CCNCC2)cc(I)c2ccccc12` [Compound 6, 4-[(1-bromo-4-iodo-2-naphthalenyl)methoxy]piperidine hydrochloride] the IC50 [2, 7] was 24.6 nM and the Ki [2, 8] was 16.7 nM.
Work on `Brc1c(COC2CCNCC2)ccc2cc(I)ccc12` [Compound 7, 4-[(1-Bromo-6-iodo-2-naphthalenyl)methoxy]piperidine hydrochloride] yielded an IC50 [2, 7] of 60 nM and a Ki [2, 8] of 58.4 nM.
For `[123I]c1c(COC2CCNCC2)ccc2ccccc12` [Compound 58], the “selective accumulation of radioactivity in serotonergic neurons” value [3] was “did not lead to selective accumulation of the radioactivity in serotonergic neurons”.
In the case of `c1ccc2nc(COC3CCNCC3)ccc2c1` [Compound 70, 4-[(2-quinolenyl)methoxy]piperdine hydrochloride], the “5-HT3 antagonism, in words” value ([4]; hydrochloride) is reported as “high selectivity as an antagonist of 5-HT3 function; also recorded: potent inhibitor”, the IC50 [4, 10] is reported as 7.4 nM and the Ki [4, 10] is reported as 3.24 nM. For the same compound, the IC50 [2, 7] was > 100 nM, the Ki [2, 8] was > 100 nM and the “inhibition of [3H]-citalopram binding / affinity for the serotonin transporter, in words” value ([2]; rat cortical tissue) was “devoid of affinity for the serotonin transporter”.
In the case of `COCCCC/C(=N\OCCN)c1ccc(C(F)(F)F)cc1` [fluvoxamine], the “therapeutic value, in words” value [5] is listed as “considerable therapeutic value”.
In the case of `O=[N+]([O-])c1ccc2nc(N3CCNCC3)ccc2c1` [nitroquipazine], the “image quality / in vivo affinity and selectivity, in words” value [6] is listed as “poor quality images”.
